Reference: publication PMC11477000, “Enantioselective Binding of Proton Pump Inhibitors to Alpha1-Acid Glycoprotein and Human Serum Albumin—A Chromatographic, Spectroscopic, and In Silico Study” (International Journal of Molecular Sciences, 2024)
Values joined by “and” are separate entries in the source; they are usually repeats but may differ in a detail not shown here. Identical values can stand only once.

Assays:
[1] = system: α1-acid glycoprotein (AGP); assay: Bound percentage by HPLC on AGP column, extrapolation to zero organic modifier; format: in vitro ADME, human; settings: for Bound percentage (b%), average: average of IPA, EtOH, MeOH
Protocol: Chromatographic columns containing proteins can be used to determine the percentage of drug binding. A plot of the natural logarithm of the retention factors against the proportion of organic modifiers was created. […] The intercept of these linear equations can be used to calculate the bound percentage according to Equation (4) (see in Section 3.2).
Chromatographic measurements were carried out on two separate HPLC systems. The AGP binding study was performed on a Waters 2695e chromatographic system paired with a Waters 2996 PDA detector, controlled by Empower 3 FR5 (Waters Corp., Milford, MA, USA), while the HSA binding study was performed on an Agilent 1100 HPLC system, consisting of an inline degasser (G1322A), a quaternary pump (G1311A), an automatic injector (G1329A) paired with sample thermostat (G1330A), a column thermostat (G1316A), and a diode array detector (G1315A) with Agilent Chemstation B04.03-SP2 software (Agilent, Bronnwald, Germany). For the binding studies, two protein-based chiral stationary phases were utilized. The chromatographic binding study for AGP was conducted on a ChromTech Chiral-AGP column (150 mm × 4.0 mm; ChromTech Ltd., Congleton, UK), while the binding study for HSA was performed on a Daicel Chiralpak HSA column (50 mm × 4.0 mm; Daicel Corp., Osaka, Japan). The detection wavelength was 210 nm for all measurements. The stock solutions of PPIs were prepared at a concentration of 1 mg/mL in MeOH. Subsequent dilutions were prepared using water. The injected samples were mixed and diluted from the stock solutions. The final concentration for the eutomer was 0.2 mg/mL, and for the distomer, it was 0.1 mg/mL. A volume of 2 μL was injected. To mitigate the instability of PPIs in aqueous solutions, the samples were kept at a temperature of 4 °C. […] After 24 h, new samples were prepared for injection. Chromatographic parameters were calculated based on the following equations. The retention factor (k) was calculated as:(1) k=(tr−t0)/t0 where tr is the retention time of the investigated analyte, and t0 is the dead time, determined as the first peak appearance in the chromatogram. Resolution was calculated based on the following equation:(2) Rs=2(t2−t1)/(w1+w2) where t2 and t1 are the retention times of the second and first eluted enantiomers, respectively, while w is the peak width. The separation factor (α) was calculated as follows:(3) α=k2/k1 where k1 and k2 are the retention factors of the first- and second-eluting enantiomers, respectively. The k values were also used to calculate the protein-bound percentage (b%) using Equation (4):(4) b%=k/1+k×100

HSA = target: T1, HSA (Homo sapiens, UniProt P02768); assay: UV titration (Benesi–Hildebrand) with HSA; format: binding; settings: n = 3, 1 μM HSA, pH 7.4 phosphate buffer, 24 °C, 278 nm, read-out: logKHSA ± Stdev. (logarithm of stability constant) (converted)
T1 construct: purchased Sigma-Aldrich
T1 sequence (P02768 25-609): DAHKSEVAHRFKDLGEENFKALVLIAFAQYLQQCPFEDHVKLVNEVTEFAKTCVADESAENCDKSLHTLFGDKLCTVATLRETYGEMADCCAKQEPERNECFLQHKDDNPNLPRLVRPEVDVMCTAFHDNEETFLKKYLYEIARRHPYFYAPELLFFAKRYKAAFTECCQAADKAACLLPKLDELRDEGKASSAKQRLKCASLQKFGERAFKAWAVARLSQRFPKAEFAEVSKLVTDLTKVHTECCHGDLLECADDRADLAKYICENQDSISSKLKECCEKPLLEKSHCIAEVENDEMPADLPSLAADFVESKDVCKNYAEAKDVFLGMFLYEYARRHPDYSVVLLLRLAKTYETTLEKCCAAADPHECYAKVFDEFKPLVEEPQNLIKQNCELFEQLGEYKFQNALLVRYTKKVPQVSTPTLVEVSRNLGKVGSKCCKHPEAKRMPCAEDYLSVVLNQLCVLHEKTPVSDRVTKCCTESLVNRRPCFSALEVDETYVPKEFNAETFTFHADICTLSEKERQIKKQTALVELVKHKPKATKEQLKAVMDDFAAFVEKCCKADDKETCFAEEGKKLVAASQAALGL
Protocol: The UV-Vis absorption assay is a straightforward and relatively simple method to examine the interactions between small molecules and macromolecules. Changes in the structure of the protein caused by the interacting ligand can lead to alterations in the absorption spectrum. […] Fixed wavelength measurements were conducted at the absorption maxima of AGP and HSA. […] The change in the absorbance and wavelength maximum in the UV spectra during the titration refers to the complex formation between proteins and PPIs. The Benesi–Hildebrand method was used to determine the stability constants based on Equation (7).
The absorption spectra were recorded on a Jasco V-750 spectrophotometer (Jasco, Tokyo, Japan) at 24 °C using 1.0 cm path-length quartz cuvettes. Then, 1 μM HSA and AGP were dissolved in a sodium phosphate buffer solution (pH 7.4; 0.1 M) and their concentration was kept constant. The PPIs were dissolved in DMSO, and further diluted with the AGP or HSA solution. Next, 1000 μL of 1 μM HSA and AGP solutions was titrated with the PPI stock solution in 1 μL steps. The concentration of the PPIs was set to 4.00, 7.98, 11.96, 15.94, 19.90, 23.86, 27.81, and 31.75 μM. The binding constants were determined using the Benesi–Hildebrand equation:(7) A0/A−A0=εPPI/εAPPI−εPPI+εPPI/εAPPI−εPPI×1/K×[C] where A0 is the absorbance of the HSA or AGP at 278 nm, A is the absorbance of the formed complex also at 278 nm, εPPI is the extinction coefficient of the actual PPI, εAPPI is the extinction coefficient of the albumin or AGP and PPI complex, K is the binding coefficient, and [C] is the concentration of the investigated PPI. The plot of A0/A − A0 versus C^−1 has a slope of K^−1. All experiments were performed in triplicate.

[2] = extrapolation to zero percent EtOH
[3] = extrapolation to zero percent IPA
[4] = extrapolation to zero percent MeOH

SMILES | Bound percentage (b%), average [1] | Bound percentage (b%) [1, 2] | Bound percentage (b%) [1, 3] | Bound percentage (b%) [1, 4] | Kd (HSA)
Cc1c(OCC(F)(F)F)ccnc1C[S@+]([O-])c1nc2ccccc2[nH]1 [S-lansoprazole] | 96.86% and 96.86 ± 1.79% | 96.92% | 98.62% | 95.04% | 21.9 µM
Cc1c(OCC(F)(F)F)ccnc1C[S@@+]([O-])c1nc2ccccc2[nH]1 [R-lansoprazole, dexlansoprazole] | 97.56% and 97.56 ± 1.39% | 97.60% | 98.93% | 96.16% | 60.3 µM
